# Test results as given in US20170071976A1, “PHARMACEUTICAL SOLUTION HAVING ANTI-TUMOR EFFECT-ENHANCING AND TOXICITY-REDUCING EFFECT, AND PHARMACEUTICAL COMPOSITION COMPRISING SAME” (priority 2014, published 2017).
# System: human colon cancer HCT-116 cells (a moderately drug resistant strain)
# Experiment: MTT assay: deuterium oxide in combination with 5-FU
# Format: cell-based
# Conditions: read-out: Inhibition of cell growth (%) (5-FU alone)
# Experimental: In vitro inhibition of growth of human colon cancer HCT-116 cells (a moderately drug resistant strain) by deuterium oxide in combination with 5-fluorouracil (5-FU)
# Method: 5-fluorouracil was diluted with the sodium chloride deuterium oxide solution according to the concentrations shown in Table 2 and added to a cell culture plate; the in vitro inhibition of tumor cell growth was measured by the MTT assay in the same manner as Example 14.
# The assay was repeated one more time.
smiles,measurement,setting,value
"O=c1[nH]cc(F)c(=O)[nH]1 [Example 5-FU, 5-fluorouracil]",inhibition at 0.02 µg/mL,5-FU final conc. 0.02 μg/ml,2.18%
same,inhibition at 0.05 µg/mL,5-FU final conc. 0.05 μg/ml,2.55%
same,inhibition at 0.1 µg/mL,5-FU final conc. 0.10 μg/ml,2.3%
same,inhibition at 0.2 µg/mL,5-FU final conc. 0.20 μg/ml,3.24%
same,inhibition at 0.39 µg/mL,5-FU final conc. 0.39 μg/ml,6.98%
same,inhibition at 0.78 µg/mL,5-FU final conc. 0.78 μg/ml,9.82%
same,inhibition at 1.56 µg/mL,5-FU final conc. 1.56 μg/ml,11%
same,inhibition at 3.13 µg/mL,5-FU final conc. 3.13 μg/ml,18.6%
same,inhibition at 6.25 µg/mL,5-FU final conc. 6.25 μg/ml,26.5%
same,inhibition at 12.5 µg/mL,5-FU final conc. 12.5 μg/ml,35.3%
